Measured values reported in US12187727B2, “Methods for antagonizing a melanocortin 4 receptor” (Pfizer Inc., priority 2020, dated 2025).

biological target: human Melanocortin-4 receptor (MC4R) (Homo sapiens (Human), UniProt P32245); test: Functional in vitro MC4R antagonist potency assay (cAMP HTRF in CHO cells); assay type: cell-based; conditions: not given
Description: Example BB. Functional In Vitro MC4R Antagonist Potency Assay
The functional in vitro antagonist potency for test compounds was determined by monitoring intracellular cyclic adenosine monophosphate (cAMP) levels in Chinese hamster ovary (CHO—) cells stably expressing the human Melanocortin-4 receptor (MC4R). Following agonist activation, human MC4R associates with the G-protein complex causing the Gα subunit to exchange bound GDP for GTP, followed by dissociation of the Ga-GTP complex. The activated Gα subunit can couple to downstream effectors to regulate the levels of second messengers or cAMP within the cell. Thereby, determination of intracellular cAMP levels allows for pharmacological characterization. Intracellular cAMP levels are quantitated using a homogenous assay utilizing the Homogeneous Time-Resolved Fluorescence (HTRF) technology from CisBio. The method is a competitive immunoassay between native cAMP produced by cells and the cAMP labelled with the acceptor dye, d2. The two entities then compete for binding to a monoclonal anti-cAMP antibody labeled with cryptate. The specific signal is inversely proportional to the concentration of cAMP in the cells.
Test compounds were solubilized to 30 mM in 100% dimethyl sulfoxide (DMSO) and stored. […] The final compound concentration range in the assay was 400 nM to […], with a final DMSO concentration of 0.1%.
(95% O2: 5% CO2) overnight, with micro-clime lids (Labcyte, Cat No. LLS-0310). […] Cells were incubated with compound for 30 minutes at 37° C. (95% O2: 5% CO2) before addition of 5 μL EC80, agonist stimulation (200 nM α-melanocyte stimulating hormone, aMSH, Bachem) and another 30-minute incubation at 37° C. (95% O2: 5% CO2). Intracellular cAMP levels were quantified as per Cisbio's protocol (5 uL of D2 and then 5 uL Cryptate, incubated for 1-2 hours at room temperature).
Data expressed as nM cAMP were then normalized to control wells using Activity Base (IDBS). Zero percent effect (ZPE) was defined as nM of cAMP generated from ECK, agonist stimulation (200 nM aMSH). In the absence of an antagonist control compound, one hundred percent effect (HPE) was defined as nM of cAMP generated from assay buffer/vehicle only.

Sequence of human Melanocortin-4 receptor (MC4R) (P32245 whole entry): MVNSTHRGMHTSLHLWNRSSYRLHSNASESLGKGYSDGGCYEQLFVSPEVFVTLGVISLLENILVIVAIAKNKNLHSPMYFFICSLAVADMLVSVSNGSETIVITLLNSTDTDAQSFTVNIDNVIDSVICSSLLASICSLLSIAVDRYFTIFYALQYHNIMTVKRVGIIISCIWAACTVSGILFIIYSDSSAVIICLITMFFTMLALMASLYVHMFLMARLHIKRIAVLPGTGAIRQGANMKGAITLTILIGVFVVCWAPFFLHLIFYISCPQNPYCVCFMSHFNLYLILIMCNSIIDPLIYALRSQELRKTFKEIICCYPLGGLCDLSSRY

Structure (SMILES) | Kb [nM]
COc1cc([C@@H](C)C(=O)N2CC[C@@]3(CCc4cc(-c5nnn(C)n5)c(C)nc4N3)C2)c(F)cn1 [Example 13, (2R)-2-(5-Fluoro-2-methoxypyridin-4-yl)-1-[(2S)-7-methyl-6-(2-methyl-2H-tetrazol-5-yl)-3,4-dihydro-1H-spiro[1,8-naphthyridine-2,3′-pyrrolidin]-1′-yl]propan-1-one] | 0.16
[2H]c1cc([2H])nc(-c2cc3c(nc2C)N[C@@]2(CC3)CCN(C(=O)[C@H](C)c3cc(OC)ncc3F)C2)n1 [Example 18, (2R)-2-(5-Fluoro-2-methoxypyridin-4-yl)-1-{(2S)-7-methyl-6-[(4,6-^2H2)pyrimidin-2-yl]-3,4-dihydro-1H-spiro[1,8-naphthyridine-2,3′-pyrrolidin]-1′-yl}propan-1-one] | 0.55

same assay, conditions: human MC4R in CHO cells, cAMP HTRF, 200 nM aMSH challenge; Kb from IC50 by Leff-Dougall equation; geometric mean; read-out: Kb (nM) Antagonist geometric

Kb [nM] | Structure (SMILES)
> 92 | COc1cc([C@@H](C)C(=O)N2CC[C@@]3(CCc4cc(Cl)c(C)nc4N3)C2)c(F)cn1 (single isomer, unassigned) [Example 102]
0.06 | COc1cc([C@@H](C)C(=O)N2CC[C@@]3(CCc4cc(-c5cnn(C)c5)c(C)nc4N3)C2)c(Cl)cn1 (single isomer, unassigned) [Example 104]
5.8 | Cc1nc2c(cc1-c1nnn(C)n1)CC[C@@]1(CCN(C(=O)[C@H](C)c3ccc(C(F)(F)F)cc3)C1)N2 (single isomer, unassigned) [Example 109]
2 | COc1cc([C@@H](C)C(=O)N2CCC3(CCc4cc(-c5nc(OC)n(C)n5)c(C)nc4N3)C2)c(F)cn1 (single isomer, unassigned) [Example 112]
0.5 | COc1cc(C(C)C(=O)N2CC[C@@]3(CCc4cc(-c5nc(C(F)F)n(C)n5)c(C)nc4N3)C2)nc(C)n1 (single isomer, unassigned) [Example 123]
5.1 | COc1cc(C(C)C(=O)N2CC[C@@]3(CCc4cc(-c5nnn(C)n5)c(C)nc4N3)C2)ccn1 (single isomer, unassigned) [Example 125]
1.1 | COc1cc(C(C)C(=O)N2CC[C@@]3(CCc4cc(-c5nnn(C)n5)c(C)nc4N3)C2)nc(C(F)F)n1 (single isomer, unassigned) [Example 127]
> 97 | COc1ncc(F)c(C(C)C(=O)N2CC[C@@]3(CCc4cc(-c5nnn(C)n5)c(C)nc4N3)C2)n1 (single isomer, unassigned) [Example 134]
0.16 | COc1cc(C(C)C(=O)N2CC[C@@]3(CCc4cc(-c5ncccn5)c(C)nc4N3)C2)c(C)cn1 (single isomer, unassigned) [Example 136]
19 | COc1cc([C@](C)(F)C(=O)N2CC[C@@]3(CCc4cc(-c5ncccn5)c(C)nc4N3)C2)c(F)cn1 (single isomer, unassigned) [Example 148]
5.9 | Cc1nc2c(cc1-c1ncccn1)CC[C@@]1(CCN(C(=O)[C@H](C)c3ccc(F)cc3F)C1)N2 (single isomer, unassigned) [Example 190]

same assay, conditions: read-out: Kb (nM) Antagonist geometric mean

Structure (SMILES) | Kb [nM]
COc1cc([C@@H](C)C(=O)N2CCC3(CCc4cc(-c5coc(C)n5)c(C)nc4N3)C2)c(F)cn1 (mixture of isomers) [Example 33, (2R)-2-(5-fluoro-2-methoxypyridin-4-yl)-1-[7-methyl-6-(2-methyl-1,3-oxazol-4-yl)-3,4-dihydro-1H-spiro[1,8-naphthyridine-2,3′-pyrrolidin]-1′-yl]propan-1-one] | 3.2
COc1cc([C@@H](C)C(=O)N2CC[C@@]3(CCc4ccc(C)nc4N3)C2)nc(C)n1 (single isomer, unassigned) [Example 23, 2-(6-methoxy-2-methylpyrimidin-4-yl)-1-(7-methyl-3,4-dihydro-1H-spiro[1,8-naphthyridine-2,3′-pyrrolidin]-1′-yl)propan-1-one] | 24
COc1ccc([C@@H](C)C(=O)N2CC[C@@]3(CCc4cc(-c5ncccn5)c(C)nc4N3)C2)cc1F (single isomer, unassigned) [Example 42] | 9.4
COc1cc([C@](C)(F)C(=O)N2CC[C@@]3(CCc4cc(-c5ncccn5)c(C)nc4N3)C2)ccn1 (single isomer, unassigned) [Example 46] | 7.2
Cc1nc2c(cc1-c1ncccn1)CC[C@@]1(CCN(C(=O)[C@H](C)c3ccc(F)c(F)c3)C1)N2 (single isomer, unassigned) [Example 50] | 2.9
Cc1nc2c(cc1-c1nnn(C)n1)CC[C@@]1(CCN(C(=O)Cc3ccc(C(F)(F)F)cc3)C1)N2 (single isomer, unassigned) [Example 65, 1-[7-methyl-6-(2-methyl-2H-tetrazol-5-yl)-3,4-dihydro-1H-spiro[1,8-naphthyridine-2,3′-pyrrolidin]-1′-yl]-2-[4-(trifluoromethyl)phenyl]ethan-1-one] | 10
COc1cc([C@@H](C)C(=O)N2CC[C@@]3(CCc4cc(-c5ncc(C(F)F)cn5)c(C)nc4N3)C2)c(F)cn1 [Example 21, (2R)-1-{(2S)-6-[5-(difluoromethyl)pyrimidin-2-yl]-7-methyl-3,4-dihydro-1H-spiro[1,8-naphthyridine-2,3′-pyrrolidin]-1′-yl}-2-(5-fluoro-2-methoxypyridin-4-yl)propan-1-one] | 20
COc1cc([C@@H](C)C(=O)N2CC[C@@]3(CCc4cc(-c5cn(C(F)(F)F)c(C)n5)c(C)nc4N3)C2)c(F)cn1 [Example 27, (2R)-2-(5-fluoro-2-methoxypyridin-4-yl)-1-{(2S)-7-methyl-6-[2-methyl-1-(trifluoromethyl)-1H-imidazol-4-yl]-3,4-dihydro-1H-spiro[1,8-naphthyridine-2,3′-pyrrolidin]-1′-yl}propan-1-one] | 4.6
COc1cc([C@H](C)C(=O)N2CC[C@@]3(CCc4cc(-c5ncccn5)c(C)nc4N3)C2)c(F)cn1 [Example 28, (2S)-2-(5-fluoro-2-methoxypyridin-4-yl)-1-[(2S)-7-methyl-6-(pyrimidin-2-yl)-3,4-dihydro-1H-spiro[1,8-naphthyridine-2,3′-pyrrolidin]-1′-yl]propan-1-one] | > 97
COc1cc([C@@H](C)C(=O)N2CC[C@]3(CCc4cc(-c5ncccn5)c(C)nc4N3)C2)c(F)cn1 [Example 29, (2R)-2-(5-fluoro-2-methoxypyridin-4-yl)-1-[(2R)-7-methyl-6-(pyrimidin-2-yl)-3,4-dihydro-1H-spiro[1,8-naphthyridine-2,3′-pyrrolidin]-1′-yl]propan-1-one] | 12
COc1cc([C@H](C)C(=O)N2CC[C@]3(CCc4cc(-c5ncccn5)c(C)nc4N3)C2)c(F)cn1 [Example 30, (2S)-2-(5-fluoro-2-methoxypyridin-4-yl)-1-[(2R)-7-methyl-6-(pyrimidin-2-yl)-3,4-dihydro-1H-spiro[1,8-naphthyridine-2,3′-pyrrolidin]-1′-yl]propan-1-one] | > 54
Cc1nc2c(cc1-c1ncccn1)CC[C@@]1(CCN(C(=O)Cc3cc(F)c(F)c(F)c3)C1)N2 [Example 54, 1-[(2S)-7-methyl-6-(pyrimidin-2-yl)-3,4-dihydro-1H-spiro[1,8-naphthyridine-2,3′-pyrrolidin]-1′-yl]-2-(3,4,5-trifluorophenyl)ethan-1-one] | 4.1

Next, values leading:

Kb [nM] | Structure (SMILES)
0.54 | COc1cc([C@@H](C)C(=O)N2CC[C@@]3(CCc4cc(-c5ncccn5)c(C)nc4N3)C2)cc(OC)n1 (single isomer, unassigned) [Example 83]
0.4 | COc1cc(OC)cc([C@@H](C)C(=O)N2CC[C@@]3(CCc4cc(-c5cnn(C)c5)c(C)nc4N3)C2)c1 (single isomer, unassigned) [Example 90]
0.16 | COc1cc([C@@H](C)C(=O)N2CC[C@@]3(CCc4cc(-c5nc(C(F)(F)F)n(C)n5)c(C)nc4N3)C2)c(F)cn1 (single isomer, unassigned) [Example 92]
0.12 | COc1cc([C@@H](C)C(=O)N2CC[C@@]3(CCc4cc(-c5nc(C(F)(F)F)n(C)n5)c(C)nc4N3)C2)c(Cl)cn1 (single isomer, unassigned) [Example 94]
19 | COc1cc([C@@H](C)C(=O)N2CC[C@@]3(CCc4ccc(C)nc4N3)C2)c(F)cn1 (single isomer, unassigned) [Example 98]
5.5 | COc1cc([C@@H](C)C(=O)N2CC[C@@]3(CCc4ccc(C)nc4N3)C2)c(Cl)cn1 (single isomer, unassigned) [Example 100]
> 40 | Cc1nc2c(cc1-c1cnn(C)c1)CC[C@@]1(CCN(C(=O)Cc3ccc(F)cc3)C1)N2 (stereo in doubt) [Example 89, 2-(4-fluorophenyl)-1-[7-methyl-6-(1-methyl-1H-pyrazol-4-yl)-3,4-dihydro-1H-spiro[1,8-naphthyridine-2,3′-pyrrolidin]-1′-yl]ethan-1-one]
